Experimental findings from patent US9802901B2, “Antibacterial 2H-indazole derivatives” (priority 2013, dated 2017) are described below.

Assay in all cases: Bacterial growth minimal inhibitory concentration (broth microdilution, CLSI M7-A7)
The test system of one assay is E. coli ATCC25922. It counts as cell-based, Escherichia coli. The settings on record: cation-adjusted Mueller-Hinton Broth, microdilution, quinolone-sensitive strain; for MIC: Escherichia coli, ATCC25922, read-out: MIC for E. coli ATCC25922. The gist of the method: (§1)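 Broth microdilution in cation-adjusted Mueller-Hinton Broth per CLSI M7-A7; MICs reported in mg/L. K. pneumoniae A-651 and A. baumannii T6474 are multiply resistant, quinolone-resistant strains; E. coli ATCC25922 and P. aeruginosa ATCC27853 are quinolone-sensitive.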

Another assay concerns P. aeruginosa ATCC27853. It counts as cell-based, Pseudomonas aeruginosa. Particulars: cation-adjusted Mueller-Hinton Broth, microdilution, quinolone-sensitive strain; for MIC: Pseudomonas aeruginosa, ATCC27853, read-out: MIC for P. aeruginosa ATCC27853. The method, boiled down: as §1
Assay [1] relates to Acinetobacter baumannii T6474. It counts as cell-based. The settings on record: cation-adjusted Mueller-Hinton Broth, microdilution, multiply-resistant (quinolone-resistant) strain; for MIC: Acinetobacter baumannii, T6474, read-out: MIC for A. Baumannii T6474. The gist of the method: as §1
A further assay deals with K. pneumoniae A-651. It counts as cell-based, Klebsiella pneumoniae. The settings on record: cation-adjusted Mueller-Hinton Broth, microdilution, multiply-resistant (quinolone-resistant) strain; for MIC: Klebsiella pneumoniae, A651, read-out: MIC for K. Pneumoniae A-651. The method, boiled down:
as §1

Converted amounts (≈) assume the structure as drawn.

For the molecule `C[C@@](CCn1cc2c(F)c(C#CC#C[C@H]3C[C@@H]3CO)ccc2n1)(C(=O)NO)S(C)(=O)=O` [Example 54, (R)-4-(4-fluoro-5-(((1S,2S)-2-(hydroxymethyl)cyclopropyl)buta-1,3-diyn-1-yl)-2H-indazol-2-yl)-N-hydroxy-2-methyl-2-(methylsulfonyl)butanamide], the MIC is not above 0.063 µg/mL in the assay with E. coli ATCC25922, 0.5 µg/mL (≈ 1.12 µM) with P. aeruginosa ATCC27853, 4 µg/mL (≈ 8.94 µM) in assay [1] and not above 0.063 µg/mL with K. pneumoniae A-651.
As to `C[C@@](CCn1cc2cc(C#CC#C[C@H](O)CO)ccc2n1)(C(=O)NO)S(C)(=O)=O` [Example 55, (R)-4-(5-((S)-5,6-dihydroxyhexa-1,3-diyn-1-yl)-2H-indazol-2-yl)-N-hydroxy-2-methyl-2-(methylsulfonyl)butanamide], the MIC with E. coli ATCC25922 is 2 µg/mL (≈ 4.77 µM); in the assay on P. aeruginosa ATCC27853, 2 µg/mL (≈ 4.77 µM); in assay [1], more than 32 µg/mL; with K. pneumoniae A-651, 4 µg/mL (≈ 9.54 µM).
As to `C[C@@](CCn1cc2cc(C#CC#CC3(CO)CC3)ccc2n1)(C(=O)NO)S(C)(=O)=O` [Example 56, (R)—N-hydroxy-4-(5-((1-(hydroxymethyl)cyclopropyl)buta-1,3-diyn-1-yl)-2H-indazol-2-yl)-2-methyl-2-(methylsulfonyl)butanamide], the MIC was 0.25 µg/mL (≈ 0.582 µM) with E. coli ATCC25922, 0.5 µg/mL (≈ 1.16 µM) in the assay with P. aeruginosa ATCC27853, more than 32 µg/mL in assay [1] and 0.5 µg/mL (≈ 1.16 µM) with K. pneumoniae A-651.
For `C[C@@](CCn1cc2cc(C#CC#CC34CC(CO)(C3)C4)ccc2n1)(C(=O)NO)S(C)(=O)=O` [Example 57, (R)—N-hydroxy-4-(5-((3-(hydroxymethyl)bicyclo[1.1.1]pentan-1-yl)buta-1,3-diyn-1-yl)-2H-indazol-2-yl)-2-methyl-2-(methylsulfonyl)butanamide], the MIC in the assay on E. coli ATCC25922 came out at 0.125 µg/mL (≈ 0.274 µM); in the assay on P. aeruginosa ATCC27853, 0.5 µg/mL (≈ 1.1 µM); in assay [1] it was 8 µg/mL (≈ 17.6 µM); in the assay on K. pneumoniae A-651, 0.25 µg/mL (≈ 0.549 µM).
On the same counts, the results for `C[C@@](CCn1cc2cc(-c3ccc(OC[C@H](O)CO)cc3F)ccc2n1)(C(=O)NO)S(C)(=O)=O` [Example 58, (R)-4-(5-(4-((R)-2,3-dihydroxypropoxy)-2-fluorophenyl)-2H-indazol-2-yl)-N-hydroxy-2-methyl-2-(methylsulfonyl)butanamide] are 2 µg/mL (≈ 4.04 µM), 2 µg/mL (≈ 4.04 µM), 8 µg/mL (≈ 16.1 µM) and 4 µg/mL (≈ 8.07 µM).
In the same order, the values of `C[C@@](CCn1cc2cc(C#Cc3cncnc3)ccc2n1)(C(=O)NO)S(C)(=O)=O` [Example 59, (R)—N-hydroxy-2-methyl-2-(methylsulfonyl)-4-(5-(pyrimidin-5-ylethynyl)-2H-indazol-2-yl)butanamide] are 4 µg/mL (≈ 9.67 µM), 8 µg/mL (≈ 19.3 µM), 8 µg/mL (≈ 19.3 µM) and 8 µg/mL (≈ 19.3 µM).
With `C[C@@](CCn1cc2cc(C#CC#C[C@@H]3C[C@@H](O)[C@@H](O)C3)ccc2n1)(C(=O)NO)S(C)(=O)=O` [Example 64, (R)-4-(5-(((1S,3R,4S)-3,4-dihydroxycyclopentyl)buta-1,3-diyn-1-yl)-2H-indazol-2-yl)-N-hydroxy-2-methyl-2-(methylsulfonyl)butanamide], the “MIC for E. coli ATCC25922” value in the assay with E. coli ATCC25922 is 0.125 µg/mL. Besides, the “MIC for P. aeruginosa ATCC27853” value against P. aeruginosa ATCC27853 worked out at 0.25 µg/mL. In addition, the “MIC for A. Baumannii T6474” value in assay [1] amounted to 4 µg/mL. Further, the “MIC for K. Pneumoniae A-651” value with K. pneumoniae A-651 worked out at 0.5 µg/mL.
With `C[C@@](CCn1cc2cc(C#CC#CC3(N)CC3)ccc2n1)(C(=O)NO)S(C)(=O)=O` [Example 65, (R)-4-(5-((1-aminocyclopropyl)buta-1,3-diyn-1-yl)-2H-indazol-2-yl)-N-hydroxy-2-methyl-2-(methylsulfonyl)butanamide], the MIC is 0.125 µg/mL (≈ 0.302 µM) with E. coli ATCC25922, 0.5 µg/mL (≈ 1.21 µM) with P. aeruginosa ATCC27853, more than 32 µg/mL in assay [1] and 0.125 µg/mL (≈ 0.302 µM) with K. pneumoniae A-651.
`C[C@@](CCn1cc2cc(C#CC#CCC3(O)CC(CO)C3)ccc2n1)(C(=O)NO)S(C)(=O)=O` (stereo partly drawn) [Example 66]: the “MIC for E. coli ATCC25922” value with E. coli ATCC25922 came out at 1 µg/mL. The “MIC for P. aeruginosa ATCC27853” value against P. aeruginosa ATCC27853 is 2 µg/mL. In addition, the “MIC for A. Baumannii T6474” value in assay [1] was more than 32 µg/mL. Further, the “MIC for K. Pneumoniae A-651” value against K. pneumoniae A-651 turned out to be 4 µg/mL.
In the case of `C[C@@]1(C#CC#Cc2ccc3nn(CC[C@](C)(C(=O)NO)S(C)(=O)=O)cc3c2)C[C@H]1CO` [Example 67, (R)—N-hydroxy-4-(5-(((1R,2R)-2-(hydroxymethyl)-1-methylcyclopropyl)buta-1,3-diyn-1-yl)-2H-indazol-2-yl)-2-methyl-2-(methylsulfonyl)butanamide], the MIC in the assay on E. coli ATCC25922 amounted to 0.125 µg/mL (≈ 0.282 µM); with P. aeruginosa ATCC27853, 0.25 µg/mL (≈ 0.564 µM); in assay [1], 32 µg/mL (≈ 72.1 µM); in the assay with K. pneumoniae A-651 it was 0.125 µg/mL (≈ 0.282 µM).
As for `C[C@@](CCn1cc2cc(C#CC#CC3(CO)COC3)ccc2n1)(C(=O)NO)S(C)(=O)=O` [Example 68, (R)—N-hydroxy-4-(5-((3-(hydroxymethyl)oxetan-3-yl)buta-1,3-diyn-1-yl)-2H-indazol-2-yl)-2-methyl-2-(methylsulfonyl)butanamide], the minimum inhibitory concentration (MIC) was 1 µg/mL (≈ 2.24 µM) with E. coli ATCC25922, 1 µg/mL (≈ 2.24 µM) in the assay on P. aeruginosa ATCC27853, more than 32 µg/mL in assay [1] and 1 µg/mL (≈ 2.24 µM) in the assay with K. pneumoniae A-651.
Turning to `C[C@]1(CO)C[C@@H]1C#CC#Cc1ccc2nn(CC[C@](C)(C(=O)NO)S(C)(=O)=O)cc2c1` [Example 69], the “MIC for E. coli ATCC25922” value against E. coli ATCC25922 is “≦0.063 mg/L”. For the same molecule, the “MIC for P. aeruginosa ATCC27853” value with P. aeruginosa ATCC27853 came out at 0.25 µg/mL. In addition, the “MIC for A. Baumannii T6474” value in assay [1] was determined as 2 µg/mL. For the same molecule, the “MIC for K. Pneumoniae A-651” value with K. pneumoniae A-651 came to 0.125 µg/mL.
As to `C[C@@](CCn1cc2cc(C#CC#CC3CCC(NC(=O)CN)C3)ccc2n1)(C(=O)NO)S(C)(=O)=O` (stereo partly drawn) [Example 70, (R)-4-(5-((3-(2-aminoacetamido)cyclopentyl)buta-1,3-diyn-1-yl)-2H-indazol-2-yl)-N-hydroxy-2-methyl-2-(methylsulfonyl)butanamide], the MIC in the assay on E. coli ATCC25922 was 1 µg/mL (≈ 2 µM); in the assay on P. aeruginosa ATCC27853, 2 µg/mL (≈ 4 µM); in assay [1] it was more than 32 µg/mL; with K. pneumoniae A-651, 1 µg/mL (≈ 2 µM).
`C[C@@](CCn1cc2cc(C#CC#C[C@@H]3C[C@H]3[C@H](O)CO)ccc2n1)(C(=O)NO)S(C)(=O)=O` [Example 71, (R)-4-(5-(((1R,2R)-2-((S)-1,2-dihydroxyethyl)cyclopropyl)buta-1,3-diyn-1-yl)-2H-indazol-2-yl)-N-hydroxy-2-methyl-2-(methylsulfonyl)butanamide]: the MIC in the assay on E. coli ATCC25922 stood at 0.25 µg/mL (≈ 0.544 µM); in the assay with P. aeruginosa ATCC27853, 0.25 µg/mL (≈ 0.544 µM); in assay [1], 8 µg/mL (≈ 17.4 µM); in the assay with K. pneumoniae A-651, 0.5 µg/mL (≈ 1.09 µM).
For the molecule `C[C@@](CCn1cc2cc(C#CC#C[C@@H]3C[C@H]3CN)ccc2n1)(C(=O)NO)S(C)(=O)=O` [Example 72, (R)-4-(5-(((1R,2R)-2-(aminomethyl)cyclopropyl)buta-1,3-diyn-1-yl)-2H-indazol-2-yl)-N-hydroxy-2-methyl-2-(methylsulfonyl)butanamide], the MIC with E. coli ATCC25922 is 2 µg/mL (≈ 4.67 µM); in the assay with P. aeruginosa ATCC27853 it was 2 µg/mL (≈ 4.67 µM); in assay [1] it was more than 8 µg/mL; with K. pneumoniae A-651 it was 4 µg/mL (≈ 9.33 µM).
For the molecule `C[C@@](CCn1cc2cc(C#CC#CC3(CO)CCC3)ccc2n1)(C(=O)NO)S(C)(=O)=O` [Example 73, (R)—N-hydroxy-4-(5-((1-(hydroxymethyl)cyclobutyl)buta-1,3-diyn-1-yl)-2H-indazol-2-yl)-2-methyl-2-(methylsulfonyl)butanamide], the MIC in the assay on E. coli ATCC25922 is 0.125 µg/mL (≈ 0.282 µM); in the assay with P. aeruginosa ATCC27853 it was 1 µg/mL (≈ 2.25 µM); in assay [1], 32 µg/mL (≈ 72.1 µM); with K. pneumoniae A-651, 0.25 µg/mL (≈ 0.564 µM).
Take `C[C@@](CCn1cc2cc(C#CC#C[C@@]3(F)C[C@@H]3CO)ccc2n1)(C(=O)NO)S(C)(=O)=O` [Example 74, (R)-4-(5-(((1R,2R)-1-fluoro-2-(hydroxymethyl)cyclopropyl)buta-1,3-diyn-1-yl)-2H-indazol-2-yl)-N-hydroxy-2-methyl-2-(methylsulfonyl)butanamide]: the MIC worked out at 0.125 µg/mL (≈ 0.279 µM) with E. coli ATCC25922, 0.5 µg/mL (≈ 1.12 µM) with P. aeruginosa ATCC27853, 4 µg/mL (≈ 8.94 µM) in assay [1] and 0.125 µg/mL (≈ 0.279 µM) in the assay with K. pneumoniae A-651.
Turning to `CN(C)CC#CC#Cc1ccc2nn(CC[C@](C)(C(=O)NO)S(C)(=O)=O)cc2c1` [Example 75, (R)-4-(5-(5-(dimethylamino)penta-1,3-diyn-1-yl)-2H-indazol-2-yl)-N-hydroxy-2-methyl-2-(methylsulfonyl)butanamide], the MIC is 0.125 µg/mL (≈ 0.3 µM) in the assay with E. coli ATCC25922, 0.5 µg/mL (≈ 1.2 µM) in the assay on P. aeruginosa ATCC27853, more than 32 µg/mL in assay [1] and 0.15 µg/mL (≈ 0.36 µM) with K. pneumoniae A-651.
On the same counts, the results for `C[C@@](CCn1cc2cc(C#CC#CC3CCNCC3)ccc2n1)(C(=O)NO)S(C)(=O)=O` [Example 76, (R)—N-hydroxy-2-methyl-2-(methylsulfonyl)-4-(5-(piperidin-4-ylbuta-1,3-diyn-1-yl)-2H-indazol-2-yl)butanamide] are 8 µg/mL (≈ 18.1 µM), 2 µg/mL (≈ 4.52 µM), more than 32 µg/mL and 32 µg/mL (≈ 72.3 µM).
On the same counts, the results for `C[C@@](CCn1cc2cc(C#CC#C[C@H]3C[C@]3(F)CO)ccc2n1)(C(=O)NO)S(C)(=O)=O` [Example 77, (R)-4-(5-(((1R,2R)-2-fluoro-2-(hydroxymethyl)cyclopropyl)buta-1,3-diyn-1-yl)-2H-indazol-2-yl)-N-hydroxy-2-methyl-2-(methylsulfonyl)butanamide] are 0.125 µg/mL (≈ 0.279 µM), 0.25 µg/mL (≈ 0.559 µM), 4 µg/mL (≈ 8.94 µM) and 0.25 µg/mL (≈ 0.559 µM).
As to `C[C@@](CCn1cc2cc(C#CC#CC3CCN(C(=O)CO)CC3)ccc2n1)(C(=O)NO)S(C)(=O)=O` [Example 78], the “MIC for E. coli ATCC25922” value with E. coli ATCC25922 is 0.5 µg/mL. In addition, the “MIC for P. aeruginosa ATCC27853” value in the assay on P. aeruginosa ATCC27853 was found to be 1 µg/mL. In addition, in assay [1], the “MIC for A. Baumannii T6474” value came to 4 µg/mL. The “MIC for K. Pneumoniae A-651” value against K. pneumoniae A-651 turned out to be 2 µg/mL.
